In ChEMBL document CHEMBL5223065, “Targeting the protease of West Nile virus” (RSC Med Chem, 2021):
*1 amine or outer side, *2 acyl side, *3 side chain or, on linkers, in order; H or OH if unused. Where a SMILES comes first, the peptide text is derived from it. [ ]: non-standard residue; d: D form. X1 = N=C(N)N[C@@H](CCCCN[*:1])C(=O)[*:2]; βAla = NCCC(=O)O

Assays:
[1] = Cytotoxicity against human A549 cells incubated for 42 hrs by MTT assay; type: toxicity, cell-based
[2] = test system: West Nile virus; test: Antiviral activity against West Nile virus infected in human A549 cells measured after 42 hrs by plaque reduction assay; type: functional, organism-based
[3] = test system: Zika virus; test: Antiviral activity against Zika virus Puerto Rico strain PRVABC59 infected in human A549 cells measured after 42 hrs incubation under dark conditions by plaque reduction assay; type: functional, organism-based; details: Puerto Rico strain PRVABC59, A549, 42 h
[4] = test system: dengue virus type 2; test: Antiviral activity against DENV2 infected in human A549 cells measured after 42 hrs by plaque reduction assay; type: functional, organism-based; details: A549, 42 h
[5] = molecular target: Coagulation factor X (Homo sapiens, UniProt P00742); test: Inhibition of factor Xa (unknown origin) using CH3OCO-dCha-Gly-Arg-pNA as substrate by […] plate reader analysis
Sequence of Coagulation factor X (P00742 41-179 limits assumed): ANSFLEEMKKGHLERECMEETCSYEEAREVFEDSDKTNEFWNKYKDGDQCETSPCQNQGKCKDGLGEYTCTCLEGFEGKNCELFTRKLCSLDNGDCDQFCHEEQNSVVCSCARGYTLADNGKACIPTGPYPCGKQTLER
Sequence of Coagulation factor X (P00742 235-488 limits assumed): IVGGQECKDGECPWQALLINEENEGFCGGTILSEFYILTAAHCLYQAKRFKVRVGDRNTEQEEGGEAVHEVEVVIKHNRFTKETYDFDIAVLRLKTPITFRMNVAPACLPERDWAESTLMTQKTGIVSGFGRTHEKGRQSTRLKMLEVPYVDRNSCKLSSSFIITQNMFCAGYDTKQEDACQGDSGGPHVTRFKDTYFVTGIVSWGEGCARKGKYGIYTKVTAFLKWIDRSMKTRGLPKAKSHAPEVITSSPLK

[6] = molecular target: Prothrombin (Homo sapiens, UniProt P00734); test: Inhibition of thrombin (unknown origin) using CH3SO2-dCha-Gly-Arg-pNA as substrate by […] plate reader analysis
[7] = Inhibition of Dengue virus 4 NS2B-NS3 protease using Benzoyl-Nle-Lys-Arg-Arg-AMC as substrate preincubated for 1 hrs followed by substrate addition and measured after 10 mins by fluorescence based plate reader analysis; set-up: species or system dengue virus type 4
[8] = molecular target: Genome polyprotein (West Nile virus) (UniProt P06935); test: Inhibition of West Nile virus NS2B-NS3 protease using Bz-nKRR-AMC as substrate assessed as inhibition constant preincubated for 30 mins followed by substrate addition and measured after 60 mins by fluorescence based microplate reader analysis; details: time 90.0 min
Target sequence in this assay (P06935 whole entry): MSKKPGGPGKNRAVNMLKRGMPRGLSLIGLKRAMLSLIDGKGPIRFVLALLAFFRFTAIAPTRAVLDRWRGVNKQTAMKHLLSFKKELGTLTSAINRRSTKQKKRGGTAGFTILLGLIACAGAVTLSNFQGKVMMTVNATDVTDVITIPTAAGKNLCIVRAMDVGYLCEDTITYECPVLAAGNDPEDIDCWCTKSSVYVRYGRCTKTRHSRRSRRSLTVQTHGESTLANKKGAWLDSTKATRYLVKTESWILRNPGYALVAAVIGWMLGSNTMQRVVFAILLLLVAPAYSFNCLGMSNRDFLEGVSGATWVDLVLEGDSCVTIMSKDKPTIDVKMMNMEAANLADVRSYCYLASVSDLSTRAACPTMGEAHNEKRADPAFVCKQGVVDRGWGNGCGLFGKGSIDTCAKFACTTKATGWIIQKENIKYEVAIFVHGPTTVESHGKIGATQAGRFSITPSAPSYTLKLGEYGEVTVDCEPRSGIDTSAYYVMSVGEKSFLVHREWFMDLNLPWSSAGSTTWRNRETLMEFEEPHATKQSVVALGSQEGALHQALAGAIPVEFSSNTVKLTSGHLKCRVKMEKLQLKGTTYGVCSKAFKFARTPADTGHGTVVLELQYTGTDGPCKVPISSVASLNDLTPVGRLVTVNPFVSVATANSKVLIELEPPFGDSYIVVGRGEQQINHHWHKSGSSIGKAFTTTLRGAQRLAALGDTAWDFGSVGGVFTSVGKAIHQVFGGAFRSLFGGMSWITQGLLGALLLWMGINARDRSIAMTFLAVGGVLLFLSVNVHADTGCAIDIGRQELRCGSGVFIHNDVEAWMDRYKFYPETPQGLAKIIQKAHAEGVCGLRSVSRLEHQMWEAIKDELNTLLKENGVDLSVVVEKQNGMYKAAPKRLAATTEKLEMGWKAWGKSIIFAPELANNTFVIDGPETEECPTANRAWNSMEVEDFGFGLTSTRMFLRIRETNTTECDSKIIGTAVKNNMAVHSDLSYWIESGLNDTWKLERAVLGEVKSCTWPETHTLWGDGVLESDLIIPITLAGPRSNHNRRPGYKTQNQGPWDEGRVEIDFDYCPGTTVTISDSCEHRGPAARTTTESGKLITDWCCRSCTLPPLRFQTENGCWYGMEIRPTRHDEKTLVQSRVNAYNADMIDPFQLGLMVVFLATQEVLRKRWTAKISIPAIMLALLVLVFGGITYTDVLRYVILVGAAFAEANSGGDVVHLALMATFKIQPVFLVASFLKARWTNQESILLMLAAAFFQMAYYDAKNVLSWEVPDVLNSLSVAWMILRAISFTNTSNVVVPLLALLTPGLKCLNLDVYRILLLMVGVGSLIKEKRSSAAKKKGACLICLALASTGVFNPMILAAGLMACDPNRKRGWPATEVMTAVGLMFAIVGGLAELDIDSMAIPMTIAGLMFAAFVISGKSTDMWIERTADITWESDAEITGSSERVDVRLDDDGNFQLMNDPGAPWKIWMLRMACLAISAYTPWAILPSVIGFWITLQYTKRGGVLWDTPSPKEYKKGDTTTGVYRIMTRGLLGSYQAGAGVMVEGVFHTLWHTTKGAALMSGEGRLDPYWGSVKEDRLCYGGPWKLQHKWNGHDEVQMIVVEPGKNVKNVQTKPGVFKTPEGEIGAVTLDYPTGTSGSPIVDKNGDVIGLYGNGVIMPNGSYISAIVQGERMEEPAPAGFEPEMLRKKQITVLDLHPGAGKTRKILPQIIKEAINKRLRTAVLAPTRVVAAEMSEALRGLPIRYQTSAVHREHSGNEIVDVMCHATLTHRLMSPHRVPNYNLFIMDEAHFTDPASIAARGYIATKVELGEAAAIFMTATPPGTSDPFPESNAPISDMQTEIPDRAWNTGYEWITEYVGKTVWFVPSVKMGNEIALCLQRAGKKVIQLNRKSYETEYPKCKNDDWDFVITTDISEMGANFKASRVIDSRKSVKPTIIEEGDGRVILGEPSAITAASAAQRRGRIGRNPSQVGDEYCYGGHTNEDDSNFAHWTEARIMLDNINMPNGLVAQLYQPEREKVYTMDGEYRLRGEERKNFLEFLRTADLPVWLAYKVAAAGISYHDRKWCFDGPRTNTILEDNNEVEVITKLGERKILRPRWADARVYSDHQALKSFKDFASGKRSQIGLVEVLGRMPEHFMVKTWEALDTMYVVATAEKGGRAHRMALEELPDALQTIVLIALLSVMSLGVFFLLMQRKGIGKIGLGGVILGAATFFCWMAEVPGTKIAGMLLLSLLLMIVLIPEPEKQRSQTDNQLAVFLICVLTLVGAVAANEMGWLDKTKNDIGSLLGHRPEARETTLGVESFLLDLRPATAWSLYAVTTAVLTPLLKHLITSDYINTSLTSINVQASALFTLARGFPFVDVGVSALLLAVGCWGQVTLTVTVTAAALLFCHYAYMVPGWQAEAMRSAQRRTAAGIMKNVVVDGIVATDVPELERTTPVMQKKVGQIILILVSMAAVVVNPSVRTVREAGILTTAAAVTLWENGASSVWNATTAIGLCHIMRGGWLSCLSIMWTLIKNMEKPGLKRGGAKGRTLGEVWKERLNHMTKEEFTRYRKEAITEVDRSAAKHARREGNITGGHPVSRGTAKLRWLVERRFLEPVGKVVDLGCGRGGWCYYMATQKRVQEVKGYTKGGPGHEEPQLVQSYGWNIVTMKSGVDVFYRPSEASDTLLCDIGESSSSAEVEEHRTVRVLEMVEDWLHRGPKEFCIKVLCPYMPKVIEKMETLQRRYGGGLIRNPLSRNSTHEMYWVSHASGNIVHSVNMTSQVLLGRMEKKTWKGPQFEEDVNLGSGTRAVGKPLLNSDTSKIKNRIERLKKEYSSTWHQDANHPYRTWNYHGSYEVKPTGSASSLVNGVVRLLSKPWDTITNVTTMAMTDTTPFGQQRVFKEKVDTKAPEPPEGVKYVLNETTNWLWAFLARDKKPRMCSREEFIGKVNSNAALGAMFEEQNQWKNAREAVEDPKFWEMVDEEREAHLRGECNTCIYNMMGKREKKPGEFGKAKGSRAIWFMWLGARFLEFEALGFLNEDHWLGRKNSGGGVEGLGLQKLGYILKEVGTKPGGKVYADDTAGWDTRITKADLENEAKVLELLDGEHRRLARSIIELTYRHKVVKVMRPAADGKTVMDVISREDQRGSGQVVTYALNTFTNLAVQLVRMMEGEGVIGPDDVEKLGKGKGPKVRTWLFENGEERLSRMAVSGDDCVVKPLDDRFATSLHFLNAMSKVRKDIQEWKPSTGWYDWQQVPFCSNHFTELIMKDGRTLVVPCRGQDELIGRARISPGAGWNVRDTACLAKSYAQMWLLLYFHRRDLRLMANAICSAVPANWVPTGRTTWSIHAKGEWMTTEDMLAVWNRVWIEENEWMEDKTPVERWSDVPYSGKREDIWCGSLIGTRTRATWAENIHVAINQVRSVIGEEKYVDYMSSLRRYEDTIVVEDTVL

[9] = test system: West Nile virus; test: Inhibition of West Nile virus EG101 NS2BH-NS3 protease expressed in Escherichia coli Top10 F' cells using Boc-Gly-Lys-Arg-AMC as substrate preincubated with compound for 15 mins followed by substrate addition and measured after 15 mins by fluorescence based assay; details: time 30.0 min
[10] = test system: dengue virus type 2; test: Antiviral activity against DENV2 New Guinea C infected in human A549 cells measured after 48 hrs by plaque reduction assay; type: functional, organism-based; details: A549, 48 h
[11] = test system: Zika virus; test: Antiviral activity against Zika virus Puerto Rico strain PRVABC59 infected in human A549 cells measured after 48 hrs by plaque reduction assay; type: functional, organism-based; details: Puerto Rico strain PRVABC59, A549, 48 h
[12] = test system: West Nile virus; test: Antiviral activity against West Nile virus NY99 infected in human A549 cells measured after 48 hrs by plaque reduction assay; type: functional, organism-based; details: NY99, A549, 48 h
[13] = test system: West Nile virus; test: Antiviral activity against West Nile virus New York 99 infected in golden hamster BHK-21 cells co-expressing renilla luciferase assessed as inhibition of viral […] replication incubated for 24 hrs; type: functional, organism-based; details: New York 99, BHK-21, 24 h
[14] = Cytotoxicity against golden hamster BHK-21 cells incubated for 24 hrs by ATP-lite assay; type: toxicity, cell-based, Mesocricetus auratus
[15] = Inhibition of DENV3 NS2B (50 to 95 residues)-NS3 (1 to 182 residues) protease expressed in Escherichia coli BL21-rosetta cells using Bz-Nle-Lys-Lys-Arg-AMC as substrate preincubated for 10 mins followed by substrate addition and measured every 30 secs; set-up: species or system dengue virus type 3
[16] = molecular target: Genome polyprotein (West Nile virus) (UniProt P06935); test: Uncompetitive inhibition of recombinant West Nile virus NS2B-NS3 protease using Pyr-RTKR-AMC as substrate assessed as inhibition constant preincubated for 15 mins followed by substrate addition
Target sequence in this assay (P06935 1371-1501 limits assumed): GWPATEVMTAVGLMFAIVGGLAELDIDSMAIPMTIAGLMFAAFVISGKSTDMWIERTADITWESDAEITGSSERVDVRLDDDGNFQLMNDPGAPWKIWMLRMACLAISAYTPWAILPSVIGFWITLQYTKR
Target sequence in this assay (P06935 1502-2120 limits assumed): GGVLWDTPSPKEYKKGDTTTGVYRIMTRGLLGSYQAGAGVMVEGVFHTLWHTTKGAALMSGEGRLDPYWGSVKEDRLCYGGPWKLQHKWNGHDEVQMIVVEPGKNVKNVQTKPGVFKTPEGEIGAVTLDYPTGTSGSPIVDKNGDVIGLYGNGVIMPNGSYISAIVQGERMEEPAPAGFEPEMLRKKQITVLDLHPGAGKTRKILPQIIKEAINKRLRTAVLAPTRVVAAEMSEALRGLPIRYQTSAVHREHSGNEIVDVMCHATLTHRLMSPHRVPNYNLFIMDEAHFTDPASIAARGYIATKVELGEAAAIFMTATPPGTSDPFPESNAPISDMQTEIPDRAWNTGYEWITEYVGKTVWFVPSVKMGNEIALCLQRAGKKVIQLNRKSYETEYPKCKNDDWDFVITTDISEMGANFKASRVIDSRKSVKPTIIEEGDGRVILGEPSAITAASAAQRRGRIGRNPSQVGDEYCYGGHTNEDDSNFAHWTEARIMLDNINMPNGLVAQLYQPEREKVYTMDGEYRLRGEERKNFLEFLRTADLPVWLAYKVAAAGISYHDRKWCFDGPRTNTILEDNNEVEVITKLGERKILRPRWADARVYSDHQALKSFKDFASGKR

[17] = test system: West Nile virus; test: Antiviral activity against West Nile virus NY003356V2 infected in human A549 cells measured after 48 hrs by plaque reduction assay; type: functional, organism-based; details: NY003356V2, A549, 48 h
[18] = Cytotoxicity against golden hamster BHK-21 cells incubated for 24 hrs by CCK-8 assay; type: toxicity, cell-based, Mesocricetus auratus
[19] = test system: dengue virus type 2; test: Antiviral activity against DENV2 infected in golden hamster BHK-21 cells preincubated with virus for 18 hrs followed by compound addition and measured after 24 hrs by plaque reduction assay; type: functional, organism-based
[20] = Cytotoxicity against African green monkey Vero cells incubated for 24 hrs by MTT assay; type: toxicity, cell-based; details: chlorocebus sabaeus
[21] = test system: dengue virus type 1; test: Antiviral activity against DENV1 infected in African green monkey Vero cells assessed as inhibition of viral infection by virucidal assay; type: functional, organism-based
[22] = test system: dengue virus type 2; test: Antiviral activity against DENV2 infected in African green monkey Vero cells assessed as inhibition of viral infection by virucidal assay; type: functional, organism-based
[23] = test system: dengue virus type 3; test: Antiviral activity against DENV3 infected in African green monkey Vero cells assessed as inhibition of viral infection by virucidal assay; type: functional, organism-based
[24] = test system: dengue virus type 4; test: Antiviral activity against DENV4 infected in African green monkey Vero cells assessed as inhibition of viral infection by virucidal assay; type: functional, organism-based

Question: With Oc1cccc(-c2c3nc(c(-c4cccc(O)c4)c4ccc([nH]4)c(-c4cccc(O)c4)c4nc(c(-c5cccc(O)c5)c5ccc2[nH]5)CC4)C=C3)c1 [TEMOPORFIN] as the compound, how does the CC50 at 42 h [1] read?
Answer: 40.7 µM

Question: And the EC50 ([2]; A549, 42 h)?
Answer: 0.01 µM

Question: What about the EC90 ([2]; A549, time 42 hrs) of the same compound?
Answer: 0.03 µM

Question: And the EC50 [3]?
Answer: 0.022 µM

Question: And the EC50 [4]?
Answer: 0.02 µM

Question: What does the source list for N=C(N)N[C@H]1CC[C@H](CNC(=O)[C@H](CCCCN)NC(=O)[C@H](CCCCN)NC(=O)Cc2ccc(Cl)c(Cl)c2)CC1?
Answer: Ki [5]: > 200 µM; Ki [6]: > 500 µM

Question: With N=C(N)N[C@H]1CCCCNC(=O)[C@H](CCCCN)NC(=O)[C@H](CCCCN)NC(=O)CCNC(=O)CNC(=O)CNC1=O (cyclo(GG[βAla]KK[X1])) as the compound, how does the Ki [7] read?
Answer: 0.16 µM

Question: For N=C(N)Nc1ccc(OC(=O)c2ccc(NC(=N)N)cc2)cc1, which K [8] is on record?
Answer: 4.6 µM

Question: For Oc1ccccc1C(Nc1nccs1)c1ccc2cccnc2c1O (stereo not drawn), which K [9] is on record?
Answer: 3.4 µM

Question: For O=C1OC2(c3ccccc31)c1cc(I)c(O)c(I)c1Oc1c2cc(I)c(O)c1I [ERYTHROSINE], which EC50 [10] is on record?
Answer: 1.2 µM

Question: And the EC50 [11]?
Answer: 0.62 µM

Question: And the EC50 [12]?
Answer: 0.66 µM

Question: Which EC50 [13] does the source give for Clc1cc(OCc2nnc3sc(Cc4ccccc4)nn23)c(Cl)cc1OCc1nnc2sc(Cc3ccccc3)nn12 here?
Answer: 17 µM

Question: What about the CC50 at 24 h [14] of the same compound?
Answer: > 200 µM

Question: With NCc1ccc(-c2ncc(OCC3CCNCC3)nc2-c2ccc(-c3cn[nH]c3)cc2)cc1 as the compound, how does the IC50 [15] read?
Answer: 0.2 µM

Question: For CCc1ccc(NC(=O)CSc2nc3ccc(NC(=O)CSc4nnc(-c5ccccc5)[nH]4)cc3s2)cc1, which K [16] is on record?
Answer: 2.8 µM

Question: Which results are given for O=C1C=C/C(=N\Nc2ccc([N+](=O)[O-])cc2Cl)C=C1C(=O)Nc1cccc(Cl)c1?
Answer: CC50 at 42 h [1]: 48.8 µM; EC50 [17]: 1.27 µM; EC50 [10]: 0.81 µM; EC50 [11]: 1 µM

Question: With Cc1ccc(C(=O)c2cc(O)c(O)c([N+](=O)[O-])c2)cc1 [TOLCAPONE] as the compound, how does the CC50 at 24 h [18] read?
Answer: 29.2 µM

Question: And the EC50 [19]?
Answer: 2 µM

Question: With C=CCc1ccc(OCc2cn(Cc3ccccc3Br)nn2)c(OC)c1 as the compound, how does the CC50 at 24 h [20] read?
Answer: > 300 µM

Question: What about the EC50 [21] of the same compound?
Answer: 14 µM

Question: What about the EC50 [22] of the same compound?
Answer: 14 µM

Question: What about the EC50 [23] of the same compound?
Answer: 14 µM

Question: And the EC50 [24]?
Answer: 14 µM
